Source: patent publication US10378058B2, “Diagnostic and therapeutic methods and compositions involving PTEN and breast cancer” (Board of Regents of The University of Texas System, priority 2003, dated 2019)
“Also recorded” adds a separate entry of the source.

Legend:
BT474 cells = experiment: Cell viability assay of BT474 cells; assay type: cell-based, human; conditions: paclitaxel alone without trastuzumab
Experimental: (§1) Cell viability assay. Cells were seeded at 1-5×10^3 cells/well in 96-well plates after oligonucleotide transfection. Viable cells were determined by CellTiter 96 AQueous Non-Radioactive Cell Proliferation Assay (Promega, Madison, Wis.).

SKBr3 cells = experiment: Cell proliferation of SKBr3 cells (MTS assay); assay type: cell-based, human; conditions: PTEN AS alone without trastuzumab, vs MIS
Experimental: as §1

PTEN [1] = experiment: PTEN expression in BT474 xenografts injected with oligonucleotides; assay type: in vivo, mice; conditions: intratumor injection 15 μg/injection twice a week for 1 week, ErbB2 expression remained the same
Experimental: Animal experiment. Female athymic nude mice (Harlan Sprague Dawley, Indianapolis, Ind.) were implanted with 0.72-mg 60-day-release 17β-estradiol pellets (Innovative Research, Sarasota, Fla.) and irradiated at 3.5 Gy prior to inoculation. BT474 cells (8×10^6) in 200 μl of PBS and Matrigel (BD Biosciences, Bedford, Mass.) mixture (1:1 ratio) were injected subcutaneously into a mouse mammary fat pad (mfp). When the mfp tumor volume reached >150 mm^3, the tumor was treated with PTEN antisense or control mismatched oligonucleotides (30 μg/week) in saline. […] Tumor diameters were serially measured with calipers and tumor volumes calculated: volume=width^2×length/2. Each treatment group contained 8-12 mice. Unpaired Student's t-test was used to assess statistical significance.

PTEN [2] = experiment: PTEN expression after antisense transfection in vitro; assay type: cell-based, human; conditions: SKBr3 cells, 25 nM, vs mock or mismatched (MIS) oligonucleotides
Experimental: Antisense Delivery in vitro. Antisense oligonucleotides against PTEN (ISIS116847: 5′-[…]-3′) (SEQ ID NO:3) and control oligonucleotides (ISIS 116848: 5′-[…]-3′ (SEQ ID NO:4), with six base mismatches to ISIS 116847) have been described (Butler et al., 2002). Cells were plated in 100-mm dishes at 30% confluence and transfected with oligonucleotides (12.5 nM for BT474 and 25 nM for SKBr3 cells) twice using Oligofectamine (Life Technologies, Rockville, Md.) 24 and 72 h post-plating. Ninety-six hours post-plating, cells were re-plated for individual assays described in this report. PTEN expression was determined 120 h post-plating (FIG. 2A).
(§2) Preparation of Cell Lysates, Immunoprecipitation, and Western Blot Analysis. Cells at 70%-80% confluence were treated with each reagent indicated in the individual experiments. For PTEN phosphotyrosine immunoblots, ErbB2 IP, and Src IP, cells were treated with 30 mM pervanadate for 10 min as described (Lu et al., 2003). Unless noted, cells were washed with PBS and lysed in IP buffer with protease inhibitor cocktail (Sigma Chemical Co., St. Louis, Mo.). Immunoprecipitation and Western blot analysis were performed (Yu et al., 1998).

PTEN [3] = experiment: PTEN tyrosine phosphorylation in 435.eB cells; assay type: cell-based; conditions: vs solvent 10% DMSO
Experimental: as §2

Src = molecular target: T1, Src (Homo sapiens, UniProt P12931); experiment: Src-Y416 phosphorylation in 435.eB cells; assay type: cell-based; conditions: vs solvent 10% DMSO
T1 construct: endogenous in cells; host or cells: 435.eB cells
Experimental: as §2

T1 sequence (P12931 whole entry): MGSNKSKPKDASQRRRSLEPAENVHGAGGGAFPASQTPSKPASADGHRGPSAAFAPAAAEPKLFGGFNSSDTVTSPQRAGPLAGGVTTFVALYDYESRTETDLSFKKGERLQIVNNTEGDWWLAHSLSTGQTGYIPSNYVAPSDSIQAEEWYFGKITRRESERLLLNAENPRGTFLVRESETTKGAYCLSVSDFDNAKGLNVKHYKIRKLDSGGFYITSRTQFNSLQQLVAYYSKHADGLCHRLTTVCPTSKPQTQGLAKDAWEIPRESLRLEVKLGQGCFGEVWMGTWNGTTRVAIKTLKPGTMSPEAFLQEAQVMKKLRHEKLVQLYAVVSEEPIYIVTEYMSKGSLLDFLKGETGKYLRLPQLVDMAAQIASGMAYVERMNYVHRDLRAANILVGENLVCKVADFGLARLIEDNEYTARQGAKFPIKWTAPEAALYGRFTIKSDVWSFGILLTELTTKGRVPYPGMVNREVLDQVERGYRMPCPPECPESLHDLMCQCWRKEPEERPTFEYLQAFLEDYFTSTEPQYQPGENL

Q: Which “cell viability, PTEN AS-transfected vs MIS control-transfected cells” value (BT474 cells) does the source give for `CC(=O)O[C@H]1C(=O)[C@@]2(C)[C@H]([C@H](OC(=O)c3ccccc3)[C@]3(O)C[C@H](OC(=O)[C@H](O)[C@@H](NC(=O)c4ccccc4)c4ccccc4)C(C)=C1C3(C)C)[C@]1(OC(C)=O)CO[C@@H]1C[C@@H]2O` [paclitaxel] here?
A: no statistically significant difference in cell viability

Q: How did the cell proliferation (SKBr3 cells) turn out when “PTEN AS: Antisense oligonucleotides against PTEN, 5′-CTGCTAGCCTCTGGATTTGA-3′ (SEQ ID NO:3) (listed as DNA, chemistry not given here)” was run?
A: no significant effect on cell proliferation

Q: And the “PTEN expression in tumor xenografts” value (PTEN [1])?
A: effectively inhibited; also recorded: reduced

Q: What about the “endogenous PTEN expression” value (PTEN [2]) of the same compound?
A: inhibited endogenous PTEN expression; also recorded: reduced

Q: `CC(C)(C)n1nc(-c2ccc(Cl)cc2)c2c(N)ncnc21` [PP2] was tested. Which “tyrosine phosphorylation of PTEN” value (PTEN [3]) did it give?
A: dramatically reduced tyrosine phosphorylation of PTEN

Q: And the “Src phosphorylation on Y416” value (Src)?
A: effectively inhibited Src phosphorylation on Y416
